The values that follow come from patent publication US20260042746A1, “2(1H)-PYRIDINIMINE DERATIVE” (SUMITOMO PHARMA CO., LTD., priority 2022, published 2026).

Holding throughout (type): cell-based
The test system of assay [1] is α-synuclein aggregate. The experiment in a line: Test 5: suppressing the accumulation of α-synuclein aggregate in dopamine neurospheroid from PLA2G6 mutant human iPS cells. As to conditions: compound added day 21, measured day 26, DMSO = 100%. The protocol: Test 5: Evaluation of Suppressing the Accumulation of α-Synuclein Aggregate with Dopamine Neurospheroid Prepared From Human iPS Cells with a Mutation in PLA2G6 Gene
(§1) (1) Induction of Differentiation from Human iPS Cell to Neural Cell
Dopaminergic progenitor cells were induced from PLA2G6 gene mutant iPS cells with dopaminergic neuron differentiation kit (Thermo Fisher Scientific Inc., cat #A3147701). Dopamine neurospheroid was prepared from the induced dopaminergic progenitor cells by three-dimensional culture system, and preserved with BrainPhys Neuronal Medium (STEMCELL Technologies, cat #ST-05793) comprising NeuroCult SM1 Neuronal Supplement, N2 Supplement-A, 20 ng/mL BDNF, 20 ng/mL GDNF, 1 mM dibutyryl cAMP, and 200 nM ascorbic acid. Half of the culture medium was replaced every 3 or 4 days after the induction of differentiation.
The test compound was diluted with the culture medium so as to be twice the final concentration, and an equal volume of the twice-concentrated solution was added to each well when half of the culture medium was replaced on day 21 after induction of differentiation.
(§2) (2) Evaluation of the Amount of α-Synuclein Aggregate
From the dopamine neurospheroid 26 days after the induction of differentiation, proteins were extracted with a TBS solution containing 1% TritionX-100, and the extracted proteins were subjected to a protein analysis with Simple Western system (Protein Simple, Inc., cat #SM-W008) using an α-synuclein antibody (Thermo Fisher Scientific Inc., cat #AHB0261) to measure the amount of the α-synuclein aggregate.
(§3) The amount of the aggregate in the neurospheroid added with each test compound was measured. Assuming that the amount of the aggregate in the neurospheroid added with a DMSO solution is 100%, the amount of the aggregate in the test samples was evaluated.

The test system of assay [2] is α-synuclein aggregate. The experiment in a line: Test 3: reducing the accumulation of α-synuclein aggregate in neurospheroid from PLA2G6 mutant human iPS cells. As to conditions: compound added day 10, measured day 15, DMSO = 100%. The protocol:
Test 3: Evaluation of Reducing the Accumulation of α-Synuclein Aggregate with Neurospheroid Prepared from Human iPS Cells with a Mutation in PLA2G6 Gene
as §1
Neural stem cells were induced from PLA2G6 gene mutant iPS cells with PSC Neuronal Induction Medium (Thermo Fisher Scientific Inc., cat #A1647801). Neurospheroid was prepared from the induced neural stem cells by three-dimensional culture system, and preserved with BrainPhys Neuronal Medium (STEMCELL Technologies, cat #ST-05793) comprising NeuroCult SM1 Neuronal Supplement, N2 Supplement-A, 20 ng/mL BDNF, 20 ng/mL GDNF, 1 mM dibutyryl cAMP, and 200 nM ascorbic acid. Half of the culture medium was replaced every 3 or 4 days after the induction of differentiation.
The test compound was diluted with the culture medium so as to be twice the final concentration, and an equal volume of the twice-concentrated solution was added to each well when half of the culture medium was replaced on day 10 after induction of differentiation.
as §2
From the neurospheroid 15 days after the induction of differentiation, proteins were extracted with a TBS solution containing 1% TritionX-100, and the extracted proteins were subjected to a protein analysis with Simple Western system (Protein Simple, Inc., cat #SM-W008) using an α-synuclein antibody (Thermo Fisher Scientific Inc., cat #AHB0261) to measure the amount of the α-synuclein aggregate.
as §3

Assay [3] has as its system α-synuclein aggregate. The experiment in a line: Test 11: reducing the accumulation of α-synuclein aggregate in dopamine neurospheroid from GBA1 mutant human iPS cells. As to conditions: compound added day 40, measured day 44, DMSO = 100%. On the procedure: Test 11: Evaluation of Reducing the Accumulation of α-Synuclein Aggregate with Dopamine Neurospheroid Prepared From Human iPS Cells with a Mutation in GBA1 Gene
as §1
Dopaminergic progenitor cells were induced from GBA1 gene mutant iPS cells with dopaminergic neuron differentiation kit (Thermo Fisher Scientific Inc., cat #A3147701). Dopamine neurospheroid was prepared from the induced dopaminergic progenitor cells by three-dimensional culture system, and preserved with BrainPhys Neuronal Medium (STEMCELL Technologies, cat #ST-05793) comprising NeuroCult SM1 Neuronal Supplement, N2 Supplement-A, 20 ng/mL BDNF, 20 ng/mL GDNF, 1 mM dibutyryl cAMP, and 200 nM ascorbic acid. Half of the culture medium was replaced every 3 or 4 days.
The test compound was diluted with the culture medium so as to be twice the final concentration, and an equal volume of the twice-concentrated solution was added to each well when half of the culture medium was replaced on day 40 after induction of differentiation.
as §2
From the dopamine neurospheroid 44 days after the induction of differentiation, proteins were extracted with a TBS solution containing 1% TritionX-100, and the extracted proteins were subjected to a protein analysis with Simple Western system (Protein Simple, Inc., cat #SM-W008) using an α-synuclein antibody (Thermo Fisher Scientific Inc., cat #AHB0261) to measure the amount of the α-synuclein aggregate.
as §3

The subject of assay [4] is α-synuclein aggregate. Briefly: Test 2: suppressing the accumulation of α-synuclein aggregate in neurospheroid from PLA2G6 mutant human iPS cells. As to conditions: compound added day 4, measured day 9, DMSO = 100%; for activity at 0.1 µM: 100 nM, read-out: Amount of aggregate (%) 100 nM; for activity at 1 µM: 1000 nM, read-out: Amount of aggregate (%) 1000 nM. The protocol:
Test 2: Evaluation of Suppressing the Accumulation of α-Synuclein Aggregate with Neurospheroid Prepared from Human iPS Cells with a Mutation in PLA2G6 Gene
as §1
Neural stem cells were induced from PLA2G6 gene mutant iPS cells with PSC Neuronal Induction Medium (Thermo Fisher Scientific Inc., cat #A1647801). Neurospheroid was prepared from the induced neural stem cells by three-dimensional culture system, and preserved with BrainPhys Neuronal Medium (STEMCELL Technologies, cat #ST-05793) comprising NeuroCult SM1 Neuronal Supplement, N2 Supplement-A, 20 ng/mL BDNF, 20 ng/mL GDNF, 1 mM dibutyryl cAMP, and 200 nM ascorbic acid. Half of the culture medium was replaced on day 2 and day 4 after the induction of differentiation.
The test compound was diluted with the culture medium so as to be twice the final concentration, and an equal volume of the twice-concentrated solution was added to each well when half of the culture medium was replaced on day 4 after induction of differentiation.
as §2
From the neurospheroid 9 days after the induction of differentiation, proteins were extracted with a TBS solution containing 1% TritionX-100, and the extracted proteins were subjected to a protein analysis with Simple Western system (Protein Simple, Inc., cat #SM-W008) using an α-synuclein antibody (Thermo Fisher Scientific Inc., cat #AHB0261) to measure the amount of the α-synuclein aggregate.
Assuming that the amount of the aggregate in the neurospheroid added with a DMSO solution is 100%, the amount of the aggregate in the neurospheroid added with each test compound was evaluated.

Consider `COc1ccn(C)/c(=N/C(=O)C2(C)CN(C)C2)c1` [Example 51, N-[(2E)-4-methoxy-1-methylpyridin-2(1H)-ylidene]-1,3-dimethylazetidine-3-carboxamide], for which, in assay [1], the “Amount of aggregate (%) 100 nM” value turned out to be 27% and the “Amount of aggregate (%) 1000 nM” value stood at 31%. Also, in assay [2], the “Amount of aggregate (%) 100 nM” value turned out to be 12% and the “Amount of aggregate (%) 1000 nM” value is reported as 10%. For the same compound, in assay [3], the “Amount of aggregate (%) 100 nM” value was determined as 16% and the “Amount of aggregate (%) 1000 nM” value amounted to 30%. Also, in assay [4], the activity at 0.1 µM came out at 4% and the activity at 1 µM is 9%.

Regarding `Cn1cccc/c1=N\C(=O)C1(C)COC1` [Example 2, 3-methyl-N-[(2E)-1-methylpyridin-2(1H)-ylidene]oxetane-3-carboxamide], in assay [1], the “Amount of aggregate (%) 100 nM” value turned out to be 24% and the “Amount of aggregate (%) 1000 nM” value was 3%. For the same compound, in assay [2], the “Amount of aggregate (%) 100 nM” value is 36% and the “Amount of aggregate (%) 1000 nM” value stood at 35%. In assay [3], the “Amount of aggregate (%) 100 nM” value was 42% and the “Amount of aggregate (%) 1000 nM” value was determined as 37%. Further, in assay [4], the activity at 0.1 µM was 31% and the activity at 1 µM is 38%.

On to `CCC1(C(=O)/N=c2\cc(OC)ccn2C)COC1` [Example 9, 3-ethyl-N-[(2E)-4-methoxy-1-methylpyridin-2(1H)-ylidene]oxetane-3-carboxamide], for which, in assay [1], the “Amount of aggregate (%) 100 nM” value is reported as 5% and the “Amount of aggregate (%) 1000 nM” value is listed as 28%. In assay [2], the “Amount of aggregate (%) 100 nM” value is recorded as 52% and the “Amount of aggregate (%) 1000 nM” value came to 37%. Moreover, in assay [4], the activity at 0.1 µM worked out at 4% and the activity at 1 µM came out at 3%.

For `CCC1(C(=O)/N=c2\ccccn2C)COC1` [Example 1, 3-Ethyl-N-[(2E)-1-methylpyridin-2(1H)-ylidene]oxetane-3-carboxamide], in assay [1], the “Amount of aggregate (%) 100 nM” value stood at 9% and the “Amount of aggregate (%) 1000 nM” value is recorded as 13%. Moreover, in assay [2], the “Amount of aggregate (%) 100 nM” value worked out at 23% and the “Amount of aggregate (%) 1000 nM” value is recorded as 18%. For the same compound, in assay [3], the “Amount of aggregate (%) 100 nM” value was 12% and the “Amount of aggregate (%) 1000 nM” value amounted to 19%. In addition, in assay [4], the activity at 0.1 µM was 20% and the activity at 1 µM stood at 21%.

Take `CCC1(C(=O)/N=c2\cc(C)c(Br)cn2C)COC1` [Example 39]: in assay [4], the activity at 0.1 µM is 15% and the activity at 1 µM stood at 94%.

For `CCn1ccc(F)c/c1=N\C(=O)C1(CC)COC1` [Example 19], in assay [4], the activity at 0.1 µM came to 112% and the activity at 1 µM amounted to 19%.

Consider `CCC1(C(=O)/N=c2\cc(C)c(F)cn2C)COC1` [Example 37], for which, in assay [4], the activity at 0.1 µM is 29% and the activity at 1 µM was found to be 53%.

Regarding `Cn1ccc(Cl)c/c1=N\C(=O)C1(C)COC1` [Example 20], in assay [4], the activity at 0.1 µM was 16% and the activity at 1 µM was determined as 49%.

On to `Cc1c/c(=N\C(=O)C2(C)CN(C)C2)n(C)cc1Br` [Example 59], for which, in assay [4], the activity at 0.1 µM turned out to be 6% and the activity at 1 µM came out at 4%.

As to `CCn1ccc(Cl)c/c1=N\C(=O)C1(CC)COC1` [Example 23], in assay [4], the activity at 0.1 µM came out at 56% and the activity at 1 µM amounted to 11%.

Consider `CCC1(C(=O)/N=c2\ccc(C(F)(F)F)cn2C)COC1` [Example 27], for which, in assay [4], the activity at 0.1 µM worked out at 19% and the activity at 1 µM was found to be 28%.

Take `CCC1(C(=O)/N=c2\ccc(F)cn2C)COC1` [Example 31, 3-ethyl-N-[(2E)-5-fluoro-1-methylpyridin-2(1H)-ylidene]oxetane-3-carboxamide]: in assay [1], the “Amount of aggregate (%) 100 nM” value came out at 13% and the “Amount of aggregate (%) 1000 nM” value was determined as 12%. In assay [2], the “Amount of aggregate (%) 100 nM” value amounted to 23% and the “Amount of aggregate (%) 1000 nM” value turned out to be 19%. Also, in assay [4], the activity at 0.1 µM was found to be 25% and the activity at 1 µM is 53%.

`COc1c/c(=N\C(=O)C2(C)CN(C)C2)n(C)cc1Cl` [Example 60, N-[(2E)-5-chloro-4-methoxy-1-methylpyridin-2(1H)-ylidene]-1,3-dimethylazetidine-3-carboxamide]: in assay [1], the “Amount of aggregate (%) 100 nM” value was determined as 21% and the “Amount of aggregate (%) 1000 nM” value was 15%. In assay [2], the “Amount of aggregate (%) 100 nM” value worked out at 9% and the “Amount of aggregate (%) 1000 nM” value amounted to 9%. Also, in assay [4], the activity at 0.1 µM amounted to 44% and the activity at 1 µM came out at 15%.

`CCC1(C(=O)/N=c2\cc(OC(F)(F)F)ccn2C)COC1` [Example 15]: in assay [4], the activity at 0.1 µM stood at 2% and the activity at 1 µM is 120%.

Consider `CCC1(C(=O)/N=c2\cc(C)ccn2C)COC1` [Example 5], for which, in assay [4], the activity at 0.1 µM was found to be 113% and the activity at 1 µM stood at 91%.

As to `Cn1cc(C(F)(F)F)cc/c1=N\C(=O)C1(C)CNC1` [Example 48], in assay [4], the activity at 0.1 µM was 63% and the activity at 1 µM was 68%.

As for `CN1CC(C)(C(=O)/N=c2\ccc(F)cn2C)C1` [Example 56], in assay [4], the activity at 0.1 µM amounted to 30% and the activity at 1 µM amounted to 68%.

Take `Cn1cccc/c1=N\C(=O)C1CCN(CC(F)(F)F)CC1` [Example 42]: in assay [4], the activity at 0.1 µM came out at 82% and the activity at 1 µM stood at 96%.

Turning to `Cn1cccc/c1=N\C(=O)N1CCOC(C)(C)C1` [Example 75, 2,2-Dimethyl-N-[(2E)-1-methylpyridin-2(1H)-ylidene]morpholine-4-carboxamide], in assay [4], the activity at 0.1 µM was 49% and the activity at 1 µM is 63%.
